According to patent publication US5719128A, “Factor IIa inhibitors” (Akzo Nobel N.V., priority 1991, dated 1998):
Residues, ends and D or L forms follow the SMILES beside them.

How the values were obtained:
Assay type in all cases: biochemical
[1] = biological target: aXa (Homo sapiens, UniProt P00742); assay: aXa-activity, chromogenic substrate s2222; settings: measured after 90 minutes, expressed as molar concentration
Description: (§1) The inhibition of human thrombin was investigated by continuously monitoring the splitting of the chromogenic substance S 2238 (N-D-Phe-L-pipecolyl-L-Arg-p-nitro-anilide 2 HCl) in the absence and in the presence of 3, 1, 0.3, 0.1 and 0.03 mM of the compound investigated. These measurements were performed with the help of a kinetic microtiter plate reader. From these measurements the end absorbances were calculated after 90 minutes. Based on these total scores, an IC50 of the various compounds investigated is expressed as the molar concentration which inhibited the end absorbance by 50%. IC50 values for aXa-activity were investigated in the same way by using the chromogenic substrate s2222 (N-benzoyl-Ile-Glu-(OCH3)Gly-Arg-pNa).

[2] = biological target: human thrombin (Homo sapiens, UniProt P00734); assay: Inhibition of human thrombin (aIIa), splitting of chromogenic substrate S 2238; settings: measured after 90 minutes, expressed as the molar concentration which inhibited the end absorbance by 50%
Description: as §1

[3] = biological target: T1, Factor IIa (Homo sapiens, UniProt P00734); assay: Ki against Factor IIa; settings: called minimum inhibitory concentrations
T1 construct: Ki [M]-Factor IIa

Chain of aXa (P00742 41-179 limits assumed): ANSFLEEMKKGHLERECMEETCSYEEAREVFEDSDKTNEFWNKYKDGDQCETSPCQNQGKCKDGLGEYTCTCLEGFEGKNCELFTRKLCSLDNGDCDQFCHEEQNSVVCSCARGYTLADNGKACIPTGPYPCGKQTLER
Chain of aXa (P00742 235-488 limits assumed): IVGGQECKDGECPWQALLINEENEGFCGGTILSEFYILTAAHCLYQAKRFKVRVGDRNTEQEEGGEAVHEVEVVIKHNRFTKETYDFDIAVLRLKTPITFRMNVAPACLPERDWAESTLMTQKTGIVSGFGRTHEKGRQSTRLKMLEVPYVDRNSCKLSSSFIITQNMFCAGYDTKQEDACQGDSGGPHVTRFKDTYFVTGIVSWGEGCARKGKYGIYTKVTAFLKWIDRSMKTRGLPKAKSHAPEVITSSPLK

IC50 [1] [µM] | IC50 [2] [µM] | Ki [3] [µM] | Structure (SMILES)
3100 | 110 |  | C[C@H](NC(=O)[C@H](CCCNC(=N)N)NC(=O)[C@@H]1CCCN1C(=O)[C@H](N)Cc1ccccc1)C(=O)N[C@@H](Cc1ccccc1)C(=O)N[C@@H](CCCCN)C(=O)O [H-D-Phe-Pro-Arg-Ala-Phe-Lys-OH] (HELM PEPTIDE1{[dF].P.R.A.F.K}$$$$V2.0)
4800 | 4000 | 70 | N=C(N)NCCC[C@H](NC(=O)[C@@H]1CCCN1C(=O)[C@H](N)Cc1ccccc1)C(=O)NCC(=O)O [H-D-Phe-Pro-Arg-Gly-OH, reference compound] (HELM PEPTIDE1{[dF].P.R.G}$$$$V2.0)
1600 | 250 | 3.4 | N=C(N)NCCC[C@H](NC(=O)[C@@H]1CCCN1C(=O)[C@H](N)Cc1ccccc1)C(=O)NCC(=O)N[C@@H](Cc1ccccc1)C(=O)N[C@@H](CCCCN)C(=O)O [H-D-Phe-Pro-Arg-Gly-Phe-Lys-OH] (HELM PEPTIDE1{[dF].P.R.G.F.K}$$$$V2.0)
1300 | 410 | 7.6 | N=C(N)NCCC[C@H](NC(=O)[C@@H]1CCCN1C(=O)[C@H](N)Cc1ccccc1)C(=O)NCC(=O)N[C@@H](Cc1ccccc1)C(=O)O [H-D-Phe-Pro-Arg-Gly-Phe-OH] (HELM PEPTIDE1{[dF].P.R.G.F}$$$$V2.0)
 |  | 26 | N=C(N)NCCC[C@H](NC(=O)[C@@H]1CCCN1C(=O)[C@H](N)Cc1ccccc1)C(=O)CCC(=O)O [H-D-Phe-Pro-Arg-psi[COCH2 ]-Gly-OH]
 |  | 0.028 | NCCCC[C@H](NC(=O)[C@H](Cc1ccccc1)NC(=O)CCC(=O)[C@H](CCCN=C(N)N)NC(=O)[C@@H]1CCCN1C(=O)[C@H](N)Cc1ccccc1)C(=O)O [H-D-Phe-Pro-Arg-psi[COCH2 ]-Gly-Phe-Lys-OH] (HELM PEPTIDE1{[dF].P.[N=C(N)NCCC[C@H](N[*:1])C(=O)CCC(=O)[*:2]].F.K}$$$$V2.0)
2100 | 37 | 0.48 | N=C(N)NCCC[C@H](NC(=O)[C@@H]1CCCN1C(=O)[C@H](N)Cc1ccccc1)C(=O)CCC(=O)N[C@@H](Cc1ccccc1)C(=O)O [H-D-Phe-Pro-Arg-psi[COCH2 ]-Gly-Phe-OH]
